Results from patent US20070077279A1, “Novel compositions containing polyphenols” (DSM IP Assets B.V., priority 2005, published 2007).

Legend:
Type in all cases: physicochemical
[1] = Storage test of chewable tablets at room temperature (25° C./60% relative humidity) in closed polypropylene tubes; conditions: for Vitamin/polyphenol in mg/tablet, 1 month: chewable tablets of Example 2, 1 month; for Vitamin/polyphenol in mg/tablet, 2 months: chewable tablets of Example 2, 2 months; for Vitamin/polyphenol in mg/tablet, 3 months: chewable tablets of Example 2, 3 months; for Vitamin/polyphenol in mg/tablet, 6 months: chewable tablets of Example 2, 6 months; for Vitamin/polyphenol in mg/tablet, 12 months: chewable tablets of Example 2, 12 months
[2] = Storage test of chewable tablets under accelerated conditions (40° C./75% relative humidity) in closed polypropylene tubes; conditions: chewable tablets of Example 2; for Initial Assay, vitamin/polyphenol in mg/tablet: 40° C./75% relative humidity study; for Vitamin/polyphenol in mg/tablet, 1 month 40° C. / Vitamin/polyphenol in mg/tablet, 2 months 40° C. / Vitamin/polyphenol in mg/tablet, 3 months 40° C.: 40° C./75% relative humidity
[3] = Storage test of lozenges under accelerated conditions (40° C./75% relative humidity) in closed polypropylene tubes; conditions: lozenges of Example 1; for Initial Assay, vitamin/polyphenol in mg/tablet: 40° C./75% relative humidity study; for Vitamin/polyphenol in mg/tablet, 1 month 40° C. / Vitamin/polyphenol in mg/tablet, 2 months 40° C. / Vitamin/polyphenol in mg/tablet, 3 months 40° C.: 40° C./75% relative humidity
[4] = Storage test of lozenges at room temperature (25° C./60% relative humidity) in closed polypropylene tubes; conditions: for Vitamin/polyphenol in mg/tablet, 1 month: lozenges of Example 1, 1 month; for Vitamin/polyphenol in mg/tablet, 2 months: lozenges of Example 1, 2 months; for Vitamin/polyphenol in mg/tablet, 3 months: lozenges of Example 1, 3 months; for Vitamin/polyphenol in mg/tablet, 6 months: lozenges of Example 1, 6 months; for Vitamin/polyphenol in mg/tablet, 12 months: lozenges of Example 1, 12 months; for Vitamin/polyphenol in mg/tablet, 18 months: lozenges of Example 1, 18 months; for Vitamin/polyphenol in mg/tablet, 24 months: lozenges of Example 1, 24 months
[5] = chewable tablets of Example 2, initial
[6] = chewable tablets of Example 2, initial (Table 4)
[7] = lozenges of Example 1, initial (Table 2)

Vitamin/polyphenol in mg/tablet, 1 month [1] | Vitamin/polyphenol in mg/tablet, 2 months [1] | Vitamin/polyphenol in mg/tablet, 3 months [1] | Vitamin/polyphenol in mg/tablet, 6 months [1] | Vitamin/polyphenol in mg/tablet, 12 months [1] | Initial Assay, vitamin/polyphenol in mg/tablet [1, 5] | Initial Assay, vitamin/polyphenol in mg/tablet [1, 6] | Initial Assay, vitamin/polyphenol in mg/tablet [2] | Vitamin/polyphenol in mg/tablet, 1 month 40° C. [2] | Vitamin/polyphenol in mg/tablet, 2 months 40° C. [2] | Vitamin/polyphenol in mg/tablet, 3 months 40° C. [2] | Initial Assay, vitamin/polyphenol in mg/tablet [3] | Vitamin/polyphenol in mg/tablet, 1 month 40° C. [3] | Vitamin/polyphenol in mg/tablet, 2 months 40° C. [3] | Vitamin/polyphenol in mg/tablet, 3 months 40° C. [3] | Vitamin/polyphenol in mg/tablet, 1 month [4] | Vitamin/polyphenol in mg/tablet, 2 months [4] | Vitamin/polyphenol in mg/tablet, 3 months [4] | Vitamin/polyphenol in mg/tablet, 6 months [4] | Vitamin/polyphenol in mg/tablet, 12 months [4] | Structure (SMILES) | also measured
32.3 mg | 33.3 mg | 36.1 mg | 32.5 mg | 33.0 mg | 33.7 mg | 33.7 mg | 33.7 mg | 31.8 mg | 32.4 mg | 33.6 mg | 12.2 mg | 11.2 mg | 11.1 mg | 11.2 mg | 11.4 mg | 12.2 mg | 11.3 mg | 12.3 mg | 12.1 mg | O=C1O[C@H]([C@@H](O)CO)C(O)=C1O [Vit C, Ascorbic Acid] | Vitamin/polyphenol in mg/tablet, 18 months [4]: 12.0 mg; Vitamin/polyphenol in mg/tablet, 24 months [4]: 11.9 mg; Initial Assay, vitamin/polyphenol in mg/tablet ([4]; lozenges of Example 1, initial): 12.2 mg; Initial Assay, vitamin/polyphenol in mg/tablet [4, 7]: 12.2 mg
8.4 mg | 8.5 mg | 8.6 mg | 8.3 mg | 8.6 mg | 8.3 mg | 8.3 mg | 8.3 mg | 8.7 mg | 8.5 mg | 8.5 mg | 1.6 mg | 1.6 mg | 1.6 mg | 1.8 mg | 1.7 mg | 1.7 mg | 1.8 mg | 1.6 mg | 1.5 mg | CC(=O)Oc1c(C)c(C)c2c(c1C)CCC(C)(CCC[C@H](C)CCC[C@H](C)CCCC(C)C)O2 (stereo partly drawn) [Vit E, Tocopherol Acetate] | Vitamin/polyphenol in mg/tablet, 18 months [4]: 1.6 mg; Vitamin/polyphenol in mg/tablet, 24 months [4]: 1.7 mg; Initial Assay, vitamin/polyphenol in mg/tablet ([4]; lozenges of Example 1, initial): 1.6 mg; Initial Assay, vitamin/polyphenol in mg/tablet [4, 7]: 1.6 mg
23.0 mg | 23.8 mg | 24.1 mg | 23.7 mg | 22.6 mg | 23.8 mg | 23.8 mg | 23.8 mg | 24.8 mg | 23.2 mg | 23.2 mg | 11.9 mg | 11.8 mg | 11.4 mg | 10.6 mg | 11.8 mg | 10.9 mg | 11.0 mg | 10.6 mg | 11.6 mg | O=C(O[C@@H]1Cc2c(O)cc(O)cc2O[C@@H]1c1cc(O)c(O)c(O)c1)c1cc(O)c(O)c(O)c1 [EGCG, epigallocatechin gallate] | Vitamin/polyphenol in mg/tablet, 18 months [4]: 12.0 mg; Vitamin/polyphenol in mg/tablet, 24 months [4]: 11.3 mg; Initial Assay, vitamin/polyphenol in mg/tablet ([4]; lozenges of Example 1, initial): 11.9 mg; Initial Assay, vitamin/polyphenol in mg/tablet [4, 7]: 11.9 mg
